Results as given in US9351974B2, “Substituted pteridinones for the treatment of cancer” (OSI Pharmaceuticals, LLC, priority 2011, dated 2016).

The compounds below were run against T1, His-tagged full-length RSK2 (RPS6KA3) (Homo sapiens, UniProt P51812) (assay: RSK2 Omnia Assay for compound IC50 determination). Conditions: ATP 15 μM, n=2, read-out: Mean RSK2 Biochem IC50.
T1 construct: His-tagged full-length RSK2 (RPS6KA3, Invitrogen PV3323); His; purchased Invitrogen PV3323
Assay type: biochemical
Procedure, shortened: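 Initial-rate slopes from continuous kinetic reads were fitted to a four-parameter equation for IC50 (n=2). Ki was then derived by Cheng-Prusoff assuming ATP-competitive inhibition. Reactions contained 15 μM ATP (Km 16.3 μM), 5 μM Omnia ST Peptide 6, and […] in 50 mM HEPES pH 7.5, 10 mM MgCl2, 1 mM DTT, 1% DMSO. Compounds spanned 11 threefold steps, […] final.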

T1 sequence (P51812 whole entry): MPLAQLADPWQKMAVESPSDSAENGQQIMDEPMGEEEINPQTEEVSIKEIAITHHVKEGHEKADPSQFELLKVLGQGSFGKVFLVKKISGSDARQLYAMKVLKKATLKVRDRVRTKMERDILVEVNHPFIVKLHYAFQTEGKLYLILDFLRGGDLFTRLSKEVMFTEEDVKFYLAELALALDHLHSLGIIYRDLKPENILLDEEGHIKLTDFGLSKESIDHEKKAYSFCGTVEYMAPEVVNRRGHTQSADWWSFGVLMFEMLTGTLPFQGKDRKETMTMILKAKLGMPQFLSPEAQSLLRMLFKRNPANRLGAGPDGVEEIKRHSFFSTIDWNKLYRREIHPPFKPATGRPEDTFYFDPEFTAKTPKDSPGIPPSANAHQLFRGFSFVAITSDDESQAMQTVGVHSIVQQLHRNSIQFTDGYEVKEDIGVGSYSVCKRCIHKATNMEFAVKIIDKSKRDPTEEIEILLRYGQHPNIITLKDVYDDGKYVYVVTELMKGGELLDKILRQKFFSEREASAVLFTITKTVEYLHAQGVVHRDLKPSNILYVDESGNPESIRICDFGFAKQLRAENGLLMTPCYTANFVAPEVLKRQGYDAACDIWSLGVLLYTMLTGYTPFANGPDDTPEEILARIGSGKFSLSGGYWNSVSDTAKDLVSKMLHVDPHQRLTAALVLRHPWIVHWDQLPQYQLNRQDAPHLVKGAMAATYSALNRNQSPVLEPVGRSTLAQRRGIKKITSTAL

Row | IC50 [nM] | Structure (SMILES)
1 | ≤ 100 | C[C@@H]1C(=O)N(c2cccc(C#N)c2)c2cnc(Nc3ccc(C(=O)O)c(F)c3)nc2N1C1CCC(F)(F)CC1 [compound 271, 4-{[(7R)-5-(3-cyanophenyl)-8-(4,4-difluorocyclohexyl)-7-methyl-6-oxo-5,6,7,8-tetrahydropteridin-2-yl]amino}-2-fluorobenzoic acid]
2 | ≤ 100 | CCOc1ccc(N2C(=O)[C@@H](C)N(C3CCC(F)(F)CC3)c3nc(Nc4cnc5[nH]ncc5c4)ncc32)cc1C#N [compound 282, 5-[(7R)-8-(4,4-difluorocyclohexyl)-7-methyl-6-oxo-2-(1H-pyrazolo[3,4-b]pyridin-5-ylamino)-7,8-dihydropteridin-5(6H)-yl]-2-ethoxybenzonitrile]
3 | ≤ 100 | CC[C@@H]1C(=O)N(c2cccc(C#N)c2)c2cnc(Nc3ccc4[nH]ncc4c3)nc2N1C1CCCC1 [compound 140, 3-[(7R)-8-cyclopentyl-7-ethyl-2-(1H-indazol-5-ylamino)-6-oxo-7,8-dihydropteridin-5(6H)-yl]benzonitrile]
4 | ≤ 100 | CC(C)Oc1ccc(N2C(=O)[C@@H](C)N(C3CCOCC3)c3nc(Nc4cc(F)c5[nH]c(=O)oc5c4)ncc32)cc1C#N [compound 205, 5-[(7R)-2-[(4-fluoro-2-oxo-2,3-dihydro-1,3-benzoxazol-6-yl)amino]-7-methyl-6-oxo-8-(tetrahydro-2H-pyran-4-yl)-7,8-dihydropteridin-5(6H)-yl]-2-(propan-2-yloxy)benzonitrile]
5 | ≤ 100 | C[C@@H]1C(=O)N(c2cccc(C#N)c2)c2cnc(Nc3ccc4c(c3)CNC4=O)nc2N1C1CCCCC1 [compound 161]
6 | ≤ 100 | CC[C@@H]1C(=O)N(c2cccnc2)c2cnc(Nc3cc(F)c4[nH]ncc4c3)nc2N1C1CCCCC1 [compound 288, (7R)-8-cyclohexyl-7-ethyl-2-[(7-fluoro-1H-indazol-5-yl)amino]-5-(pyridin-3-yl)-7,8-dihydropteridin-6(5H)-one]
7 | ≤ 100 | CNS(=O)(=O)c1ccc(N2C(=O)[C@@H](C)N(C3CCCCC3)c3nc(Nc4ccc5[nH]ncc5c4)ncc32)cc1 [Example 37, 4-[(7R)-8-cyclohexyl-2-(1H-indazol-5-ylamino)-7-methyl-6-oxo-7,8-dihydropteridin-5(6H)-yl]-N-methylbenzenesulfonamide]
8 | ≤ 100 | CC(C)Oc1ccc(N2C(=O)[C@@H](C)N(C3CCOCC3)c3nc(Nc4ccc5[nH]c(=O)oc5c4)ncc32)cc1C#N [compound 199, 5-[(7R)-7-methyl-6-oxo-2-[(2-oxo-2,3-dihydro-1,3-benzoxazol-6-yl)amino]-8-(tetrahydro-2H-pyran-4-yl)-7,8-dihydropteridin-5(6H)-yl]-2-(propan-2-yloxy)benzonitrile]
9 | 100 to 1000 | CCOc1ccc(N2C(=O)[C@@H](C)N(C3CCC(F)(F)CC3)c3nc(Nc4ccc5[nH]c(=O)oc5c4)ncc32)cc1C#N [compound 284, 5-[(7R)-8-(4,4-difluorocyclohexyl)-7-methyl-6-oxo-2-[(2-oxo-2,3-dihydro-1,3-benzoxazol-6-yl)amino]-7,8-dihydropteridin-5(6H)-yl]-2-ethoxybenzonitrile]
10 | 100 to 1000 | COc1ccc(N2C(=O)[C@@H](C)N(C3CCC(F)(F)CC3)c3nc(Nc4ccc5[nH]c(=O)oc5c4)ncc32)cc1C#N [compound 283, 5-[(7R)-8-(4,4-difluorocyclohexyl)-7-methyl-6-oxo-2-[(2-oxo-2,3-dihydro-1,3-benzoxazol-6-yl)amino]-7,8-dihydropteridin-5(6H)-yl]-2-methoxybenzonitrile]
11 | > 1000 | CC(C)CCN1c2nc(Nc3cccc(C(=O)O)c3)ncc2N(c2ccccc2)C(=O)C1C (stereo not drawn) [Example 15, 3-{[7-methyl-8-(3-methylbutyl)-6-oxo-5-phenyl-5,6,7,8-tetrahydropteridin-2-yl]amino}benzoic acid]
12 | ≤ 100 | CO[C@H]1CC[C@@H](N2c3nc(Nc4cc(F)c5[nH]ncc5c4)ncc3N(c3cccc(C#N)c3)C(=O)[C@H]2C)CC1 [compound 223, 3-[(7R)-2-[(7-fluoro-1H-indazol-5-yl)amino]-8-(cis-4-methoxycyclohexyl)-7-methyl-6-oxo-7,8-dihydropteridin-5(6H)-yl]benzonitrile]
13 | ≤ 100 | CC(C)CCN1c2nc(Nc3ccc4[nH]ncc4c3)ncc2N(c2ccccc2)C(=O)C1C (stereo not drawn) [Example 1, 2-(1H-indazol-5-ylamino)-7-methyl-8-(3-methylbutyl)-5-phenyl-7,8-dihydropteridin-6(5H)-one]
14 | ≤ 100 | COc1ccc(N2C(=O)[C@@H](C)N(C3CCCCC3)c3nc(Nc4cc(F)c5[nH]ncc5c4)ncc32)cn1 [compound 138, (7R)-8-cyclohexyl-2-[(7-fluoro-1H-indazol-5-yl)amino]-5-(6-methoxypyridin-3-yl)-7-methyl-7,8-dihydropteridin-6(5H)-one]
15 | ≤ 100 | COc1ccc(N2C(=O)[C@@H](C)N(C3CCCCC3)c3nc(Nc4cnc5[nH]ncc5c4)ncc32)cc1OC [compound 153, (7R)-8-cyclohexyl-5-(3,4-dimethoxyphenyl)-7-methyl-2-(1H-pyrazolo[3,4-B]pyridin-5-ylamino)-7,8-dihydropteridin-6(5H)-one]
16 | ≤ 100 | C[C@@H]1C(=O)N(c2cccc(CO)c2)c2cnc(Nc3ccc4[nH]ncc4c3)nc2N1C1CCCCC1 [compound 127, (7R)-8-cyclohexyl-5-[3-(hydroxymethyl)phenyl]-2-(1H-indazol-5-ylamino)-7-methyl-7,8-dihydropteridin-6(5H)-one]
17 | ≤ 100 | C[C@@H]1C(=O)N(c2ccc(N3CCN(C)CC3)nc2)c2cnc(Nc3cc(F)c4[nH]ncc4c3)nc2N1C1CCOCC1 [compound 193, (7R)-2-[(7-fluoro-1H-indazol-5-yl)amino]-7-methyl-5-[6-(4-methylpiperazin-1-yl)pyridin-3-yl]-8-(tetrahydro-2H-pyran-4-yl)-7,8-dihydropteridin-6(5H)-one]
18 | ≤ 100 | C[C@@H]1C(=O)N(c2ccc(NS(C)(=O)=O)cc2)c2cnc(Nc3ccc4[nH]ncc4c3)nc2N1C1CCCCC1 [Example 47, N-{4-[(7R)-8-cyclohexyl-2-(1H-indazol-5-ylamino)-7-methyl-6-oxo-7,8-dihydropteridin-5(6H)-yl]phenyl}methanesulfonamide]
19 | ≤ 100 | C[C@@H]1C(=O)N(c2cccc(C#N)c2)c2cnc(Nc3ccc4c(=O)[nH]oc4c3)nc2N1C1CCCCC1 [compound 166, 3-[(7R)-8-cyclohexyl-7-methyl-6-oxo-2-[(3-oxo-2,3-dihydro-1,2-benzoxazol-6-yl)amino]-7,8-dihydropteridin-5(6H)-yl]benzonitrile]
20 | ≤ 100 | COc1ccc(N2C(=O)[C@@H](C)N([C@H]3CC[C@H](OC)CC3)c3nc(Nc4cnc5[nH]ncc5c4)ncc32)cc1C#N [compound 234, 2-methoxy-5-[(7R)-8-(trans-4-methoxycyclohexyl)-7-methyl-6-oxo-2-(1H-pyrazolo[3,4-b]pyridin-5-ylamino)-7,8-dihydropteridin-5(6H)-yl]benzonitrile]
21 | 100 to 1000 | CC(C)Oc1ccc(N2C(=O)[C@@H](C)N(C3CCC(F)(F)CC3)c3nc(Nc4cnc5[nH]ncc5c4)ncc32)cc1C#N [compound 286, 5-[(7R)-8-(4,4-difluorocyclohexyl)-7-methyl-6-oxo-2-(1H-pyrazolo[3,4-b]pyridin-5-ylamino)-7,8-dihydropteridin-5(6H)-yl]-2-(propan-2-yloxy)benzonitrile]
